The species named for series [1] is Cavia porcellus. Description: […] activity was evaluated by inhibition of nicotinate induced spasm in isolated guinea pig ileum. The class given is functional.
For series [2], the species on record is Cavia porcellus. Description: Compound was tested for Anticholenergic activity on isolated guinea pig trachea contracted by carbachol. To be noted: for Kb: read-out: pA2 (converted). In kind it is functional.
For series [3], the species on record is Cavia porcellus. Nature of the series: […] activity was evaluated by inhibition of serotonin induced spasm in isolated guinea pig ileum. The class given is functional.
The species named for series [4] is Cavia porcellus. Description: […] activity was evaluated by inhibition of histamine induced spasm in isolated guinea pig ileum. The class given is functional.
Series [5] in a line: Ratio of pA2 to pD2 was determined on isolated guinea pig trachea. The class given is functional.
The species named for series [6] is Homo sapiens. Description: Compound was tested for Bronchodilator activity against isolated human bronchus contracted by carbachol. In kind it is functional.
Series [7] is filed under the species Cavia porcellus. Nature of the series: […] activity was evaluated by inhibition of acetylcholine induced spasm in isolated guinea pig ileum. In kind it is functional.
The species named for series [8] is Cavia porcellus. Nature of the series: […] activity was evaluated by inhibition of BaCl2 induced spasm in isolated guinea pig ileum. In kind it is functional.
Series [9] relates to Cavia porcellus. Nature of the series: Compound was tested for Bronchodilator activity against serotonin-induced spasm in guinea pig by Konzett-Rossler test; dose administered by intraduodenal route. To be noted: read-out: ID50 (the source's name). In kind it is functional.
Series [10] concerns Cavia porcellus. Nature of the series: Compound was tested for Bronchodilator activity against histamine-induced spasm in guinea pig by Konzett-Rossler test; dose administered by intraduodenal route. In kind it is functional. To be noted: read-out: ID50 (the source's name).
Series [11] deals with Cavia porcellus. Description: Compound was tested for Bronchodilator activity against acetylcholine-induced spasm in guinea pig by Konzett-Rossler test; dose administered by intraduodenal route. In kind it is functional. The following applies: read-out: ID50 (the source's name).
Series [12] is described as follows: Relative potency is ratio of IC50 of theophylline / IC50 was determined. The class given is functional.
The species named for series [13] is Cavia porcellus. Description: Bronchodilator activity against acetylcholine-induced spasm in guinea pig. The class given is functional. The following applies: read-out: ID50 (the source's name).
The species entered for series [14] is Homo sapiens. Description: compound was tested for Bronchodilator activity against isolated human bronchus contracted by carbachol. The class given is functional.
The species entered for series [15] is Cavia porcellus. Description: Bronchodilator activity against histamine-induced spasm in guinea pig. The following applies: read-out: ID50 (the source's name). The class given is functional.
The species entered for series [16] is Cavia porcellus. Nature of the series: Bronchodilator activity against serotonin-induced spasm in guinea pig. The class given is functional. The following applies: read-out: ID50 (the source's name).
Series [17] has as its system Cavia porcellus. Description: Compound was tested for Bronchodilator activity against acetylcholine-induced spasm in guinea pig by Konzett-Rossler tes; dose administered by intraduodenal route. The following applies: read-out: ID50 (the source's name). The class given is functional.
The nature of series [18]: Relative potency calculated from ratio of IC50 of theophylline / IC50 was determined. In kind it is functional.
The species entered for series [19] is Cavia porcellus. Description: Compound was tested for Bronchodilator activity against acetylcholine-induced spasm in guinea pig by Konzett-Rossler test. In kind it is organism-based. To be noted: in vivo.
Series [20] has as its system Cavia porcellus. Description: Compound was tested for Bronchodilator activity against serotonin-induced spasm in guinea pig by Konzett-Rossler test; dose administered by intraduodenal route. In kind it is functional. To be noted: read-out: ID50 (the source's name).
The mark [21] stands for this setting: Homo sapiens, Bronchus, read-out: IC50.

Where only a bound is given, the exact number is not on record here.

`Cl.O=c1c2c(nc3n1CCCCC3)CCCC2`: the IC50 in the series filed under Cavia porcellus [1] was 49.5 µM; in the series filed under Cavia porcellus [3], 752 uM l-1; in the series listed under Cavia porcellus [4], greater than 100 µM; in the series filed under Homo sapiens [6] it was 5.4 µM; in the series filed under Cavia porcellus [7] it was 5.01 µM; in the series listed under Cavia porcellus [8] it was 123 uM l-1. The same molecule gave a pD2 in the series listed under Cavia porcellus [2] of 5.39. In addition, the Kb in the series filed under Cavia porcellus [2] is 1.91 µM. In addition, the Ratio in series [5] is reported as 1.06.

Consider `CC1CCCCn2c1nc1c(c2=O)CCCC1` (stereo not drawn), for which the ED50 in the series on Cavia porcellus [9], with Cavia porcellus [10] and with Cavia porcellus [11] was greater than 320 µmol/kg in each case.

As to `CC1CCn2c(nc3c(c2=O)CCC3)C1` (stereo not drawn), the Relative potency in series [12] amounted to 1.07. The ED50 in the series listed under Cavia porcellus [13] turned out to be 56.4 µmol/kg; in the series listed under Cavia porcellus [15], 18.9 µmol/kg; in the series filed under Cavia porcellus [16], 22.5 µmol/kg. Also, in the series listed under Homo sapiens [14], the IC50 turned out to be 141 uM l-1.

As to `Cc1cccc2c(=O)n3c(nc12)CCCCC3`, the ED50 in the series on Cavia porcellus [9], in the series with Cavia porcellus [10] and with Cavia porcellus [11] was greater than 32 µmol/kg each time.

Turning to `CC1CCCCc2nc3c(c(=O)n21)CCCC3` (stereo not drawn), the ED50 in the series with Cavia porcellus [9], in the series on Cavia porcellus [10] and with Cavia porcellus [17] was greater than 320 µmol/kg in each case.

For the molecule `O=c1c2c(nc3n1CCCCC3)CCCC2`, the Relative potency in series [18] was 28.

For the molecule `Cc1cccn2c(=O)c3c(nc12)CCCC3`, in series [12], the Relative potency came to 2.26. Besides, the ED50 in the series filed under Cavia porcellus [13] came out at 15.7 µmol/kg; in the series listed under Cavia porcellus [15], 7 µmol/kg; in the series filed under Cavia porcellus [16], 15.6 µmol/kg. The IC50 in the series listed under Homo sapiens [14] (setting [21]) was 66.6 µM.

On to `O=c1c2c(nc3n1CCCCC3)CCC2`, for which the IC50 in the series filed under Cavia porcellus [1] was 75 µM; in the series filed under Cavia porcellus [3], 112 uM l-1; in the series listed under Cavia porcellus [4], greater than 100 µM; in the series listed under Homo sapiens [6] it was 15.2 µM; in the series listed under Cavia porcellus [7], 2.53 µM; in the series listed under Cavia porcellus [8], 113 uM l-1. Moreover, the pD2 in the series listed under Cavia porcellus [2] is reported as 5.37. In addition, the Kb in the series listed under Cavia porcellus [2] was 0.229 µM. The Relative potency in [12] stood at 9.93. The Ratio in [5] stood at 1.23.

`O=c1nc2n(c3c1CCCCC3)CCC2`: in the series listed under Cavia porcellus [19], the ID50 was greater than 32 µM/kg. Besides, the ED50 in the series filed under Cavia porcellus [15] and in the series filed under Cavia porcellus [16] was greater than 32 µmol/kg each time.

`CCc1c(C)nc2n(c1=O)CCC(C)C2` (stereo not drawn): the Relative potency in series [12] was found to be 2.02. Further, the ED50 in the series filed under Cavia porcellus [13] is 28.2 µmol/kg; in the series listed under Cavia porcellus [15], 23.2 µmol/kg; in the series filed under Cavia porcellus [16], 18.4 µmol/kg. In the series filed under Homo sapiens [14] (setting [21]), the IC50 worked out at 74.6 µM.

In the case of `COC(=O)c1ccc2nc3n(c(=O)c2c1)CCCCC3`, the ED50 with Cavia porcellus [9] was 32 µmol/kg; with Cavia porcellus [10] it was 32 µmol/kg; in the series on Cavia porcellus [11], greater than 32 µmol/kg.

Consider `CCOC(=O)c1ccc2c(=O)n3c(nc2c1)CCCCC3`, for which the ED50 with Cavia porcellus [20] was found to be 10 µmol/kg; in the series with Cavia porcellus [10], 32 µmol/kg; in the series on Cavia porcellus [11] it was 24.5 µmol/kg.

Values taken from ChEMBL document CHEMBL1123826, “Nitrogen bridgehead compounds. 66. Bronchodilator nitrogen bridgehead compounds with a pyrimidinone moiety” (J Med Chem, 1987).
